From US10568320B2, “Biologically-based control methods for insect pests” (The United States of America, as represented by the …, priority 2017, dated 2020)

Experiments:
fire ant workers [1] = experiment: Example 14 feeding experiments: fire ant worker mortality
[2] = Solubility in aqueous solution; format: physicochemical; conditions: solution
[3] = system: monogyne queenright colonies; experiment: Feeding of monogyne queenright colonies: worker and queen mortality; format: in vivo, Solenopsis invicta; conditions: 1% in 10% sucrose, 27 d
Source text: FIGS. 24A and 24B show results for the sucrose (10%) control and two treatments, tyramine (1%) and N-methyl-tyramine (1%), both dissolved in 10% sucrose. The control and test colonies were monogyne queenright colonies, containing a single queen, brood and workers started in the laboratory from newly mated queens collected in the field. The mean number of workers per colony was 8,400±400. […] Previous experiments used queenless sub-colonies, rather than the queenright colonies in these experiments. The mortality effect on colony queens was unexpected, since worker fire ants are completely sterile and cannot reproduce even if the queen dies. Therefore, when the reproductive queen dies no more brood is produced and the colony is no longer functional—it is considered dead. […] Therefore, 80% of the treated colonies were considered dead.

female sexuals (alates) = experiment: Worker attraction to poison sac extracts of dealates (queen pheromone bioassay); format: in vivo, Solenopsis invicta; conditions: extracts from dealates of fed sub-colonies
[4] = system: mature female alates (MFAs); experiment: Injection into MFA abdomen: ovariole development and egg-laying; format: in vivo, Solenopsis invicta; conditions: 100 nL of a 1.0% saline solution (1 microgram) injected
Source text: Two measures of ovariole development were used. […] Measurement of ovariole area in the same samples gave a quantitative measure of ovariole development. […] Within the context of a colony this effect would be in direct conflict with the colony queen. Eggs laid would not be fertile and therefore develop into males. Queen pheromone is also produced by […], which would act to reduce the fecundity of the colony queen. For example, in polygyne colonies the higher the number of queens the lower is the mean egg-laying rate/queen due to the presence of excess queen pheromone (see Vander Meer, R. K., et al. (1992), A comparison of queen oviposition rates from monogyne and polygyne fire ant, Solenopsis invicta, colonies.

fire ant workers [5] = experiment: Droplet feeding of worker groups: mortality over 24 h and concentration series; format: in vivo; conditions: about 1% in 10% sucrose
Method: To determine how quickly the tyramine and acetyl tyramide act, 60 workers were allowed to feed on tyramine (FIG. 8A) or acetyl tyramide (FIG. 8B) dissolved at about 1% in 10% sucrose solution. The control and treatments were presented to the worker ants as droplets on phase separation filter paper. Consumption of the droplets was readily observed. Mortality was monitored for each of the first 10 hours and then at 24 hours. […] Tyramine and acetyl tyramide had >50% and >40% mortality, respectively within the 24 h time period of the experiment. […] This distribution is a cornerstone of pest ant baits. To test this hypothesis, a similar experiment was conducted. Workers were allowed to feed on the treatment and control solutions and were then transferred to another container with unfed nestmates. In all cases, it was observed that the treatment fed workers regurgitated the treatment and sucrose solutions to their unfed nestmates through the classic mechanism of trophallaxis (data not shown). Thus, normal worker behavior necessary for bait development was not affected by the treatments under these experimental conditions.
One criteria for an effective pest ant Active Ingredient (AI) is maintenance of activity over 1-3 orders of magnitude, because as the bait is distributed from one ant to another the material is diluted. The AI must maintain activity until all individuals in the colony (e.g., workers, brood and sexuals including the queen) have received the AI. […] Journal of Economic Entomology 99(5): 1739-1748). The 0.01% had >24 h delay in mortality.

[6] = system: mature female alates (MFAs); experiment: Injection into MFA abdomen: wing loss (dealation); format: in vivo, Solenopsis invicta; conditions: 100 nL of a 1.0% saline solution injected into the MFA abdomen
Source text: While the MFAs are in their mother colony, the queen releases primer pheromones that inhibit wing loss (sometimes referred to herein as “dealation”), development of ovaries, wing muscle histolysis, and pheromone production. This release prevents reproductive/resource competition between the MFAs and the mother queen. If MFAs are removed from the colony, they become disinhibited and eventually (e.g., within days) lose their wings and start the physiological processes (e.g., wing loss and ovariole development). MFA also become disinhibited when they leave the colony on a mating flight; however, in this case the now NMQs lose their wings within minutes of landing and initiate the above mentioned physiological/biochemical changes (e.g., wing loss and ovariole development). We know from previous experiments that mating is the trigger, not mating flight initiation or the act of flying (Burns, S. N., et al. (2002) Identification and action of juvenile hormone III from sexually mature alate females of the red imported fire ant, Solenopsis invicta. Journal of Insect Physiology 48: 357-365; Burns, S. N., et al. (2005), The effect of age and social environment on dealation in Solenopsis invicta (Hymenoptera: Formicidae) female […]. […] Burns, S. N., et al. […]

4th instar sexual larvae = experiment: Direct (hand) feeding of 4th instar sexual larvae; format: in vivo, Solenopsis invicta; conditions: fed once, 80 nL max of about 1% w/v in 10% sucrose; N=10
Source text: It was concluded that the 4th instar larvae are refractory to the mortality effects observed when workers are fed tyramine.

fire ant workers [7] = experiment: Five biogenic amines fed to fire ant workers as droplets; format: in vivo, Solenopsis invicta; conditions: 1% (w/v) as HCl salts in 10% sucrose, 48 h, 60 workers
Method: Tyramine is one of five biogenic amines that may be found in insects (e.g., dopamine, histamine, octopamine, serotonin, and tyramine). The experiment in this example tests whether fire ant worker mortality effects observed with tyramine may be a general result of the ants ingesting greater than normal amounts of a biogenic amine. To test this hypothesis groups of 20 fire ant worker ants were starved for 24 hours and fed a 1% (w/v) biogenic amine in 10% sucrose solution. Treatments and sucrose were presented to the worker ants as a 25 microliter droplet on a 2 cm^2 piece of silicon treated filter paper. Each treatment and control were performed in triplicate for a total of 60 worker ants per treatment and control. Mortality was monitored for the first 7-8 h after introduction of the sucrose solutions, then at 24 h. The feeding/monitoring sequence was repeated for another 24 h period for a total of 48 h. The results are shown in FIG. 12A-12B in the form of Kaplan-Meier mortality curves.

## NCCc1ccc(F)cc1 [4-flurophenethylamine]
Fire ant workers [1]; 1.0% in 10% sucrose
  fire ant worker mortality versus 10% sucrose control: Significant, but low, worker mortality

## COc1ccccc1CCN [2-methoxy-phenethylamine]
Fire ant workers [1]; 1.0% in 10% sucrose
  fire ant worker mortality versus 10% sucrose control: No difference in mortality

## CNCCc1ccc(O)cc1 [N-methyl-tyramine (free base), N-methyl-tyramine]
Fire ant workers [1]; 0.01% in 10% sucrose
  fire ant worker mortality versus 10% sucrose control: significantly different from the 10% sucrose control
Fire ant workers [1]; 0.1% in 10% sucrose
  fire ant worker mortality versus 10% sucrose control: significantly different from the 10% sucrose control
Fire ant workers [1]; 1.0% in 10% sucrose
  fire ant worker mortality versus 10% sucrose control: significantly different from the 10% sucrose control
Fire ant workers [1]; in 10% sucrose
  mortality at the two lower concentrations (0.1 and 0.01%) versus the 1.0% concentration: significantly higher mortality than the 1.0% concentration
[2]
  solubility maximum: 1%
[3]
  % worker mortality at the end of the experiment versus control: significantly different from the corresponding controls
  fate of colony queens (five replicates): all queen replicates (5) died
  queen mortality at the end of the experiment versus control: significantly different from the corresponding controls
[3]; five colonies
  colonies considered dead: 100%
Female sexuals (alates)
  worker attraction to poison sac extracts compared among active treatments: significantly greater worker attraction than poison sac extracts from tyramine treatments
  worker attraction to poison sac extracts versus N,N-dimethyl tyramine treatment and controls: significantly different from those from the N,N-dimethyl tyramine treatment and the sucrose and hexane controls

## CCCCCC(=O)NCCc1ccc(O)cc1 [hexanoyl tyramide]
[4]
  ovariole development, ovariole area, compared to controls: not hexanoyl tyramide caused significant ovariole development
  ovariole development, ovary rank 1-4, compared to the control: significant ovariole development
MFA mid- and hind-gut
  degradation of the tyramide: No degradation of the tyramide was observed

## acetyl tyramide
Fire ant workers [5]; 24 h
  worker mortality compared with sucrose control (Kaplan-Meier, Log-rank): significantly greater worker mortality than the sucrose control
Fire ant workers [5]; droplets, 60 workers
  worker mortality within the 24 h time period: > 40%
[4]
  ovariole development, ovariole area, compared to controls: caused significant ovariole development
  ovariole development, ovary rank 1-4, compared to the control: significant ovariole development
MFA mid- and hind-gut
  degradation of the tyramide: No degradation of the tyramide was observed
[6]
  dealation (wing loss) compared to the control: significantly faster and inappropriate dealation
4th instar sexual larvae
  mortality / sickness of 4th instar sexual larvae: none of the acetyl tyramide treatments died or appeared sick

## NCCc1ccc(O)c(O)c1 [dopamine]
Fire ant workers [7]
  worker mortality (Kaplan-Meier): did not result in significant mortality

## NCCc1c[nH]c2ccc(O)cc12 [serotonin]
Fire ant workers [7]
  worker mortality (Kaplan-Meier): did not result in significant mortality

## Cl.NCCc1ccc(O)cc1 [tyramine HCl]
Fire ant workers [7]
  worker mortality (Kaplan-Meier): statistically greater mortality than the control and the other 4 biogenic amines
Female sexuals (alates)
  worker attraction to poison sac extracts compared among active treatments: not different from tyramine or N-methyl tyramine
  worker attraction to poison sac extracts versus N,N-dimethyl tyramine treatment and controls: significantly different from those from the N,N-dimethyl tyramine treatment and the sucrose and hexane controls

## NCCc1ccc(Br)cc1 [4-bromophenethylamine, 4-bromo-phenethylamine]
Fire ant workers [1]; 1.0% in 10% sucrose
  fire ant worker mortality versus 10% sucrose control: Significant, but low, worker mortality

## COc1cccc(CCN)c1 [3-methoxy-phenethylamine]
Fire ant workers [1]; 1.0% in 10% sucrose
  fire ant worker mortality versus 10% sucrose control: No difference in mortality

## NCCc1c[nH]cn1 [histamine]
Fire ant workers [7]
  worker mortality (Kaplan-Meier): did not result in significant mortality

## NCC(O)c1ccc(O)cc1 (stereo not drawn) [octopamine]
Fire ant workers [7]
  worker mortality (Kaplan-Meier): did not result in significant mortality

## NCCc1ccc(Cl)cc1 [4-chlorophenethylamine, 4-chloro-phenethylamine]
Fire ant workers [1]; 1.0% in 10% sucrose
  fire ant worker mortality versus 10% sucrose control: Significant, but low, worker mortality

## CN(C)CCc1ccc(O)cc1 [N,N-dimethyl-tyramine]
Fire ant workers [1]; 1.0% in 10% sucrose
  fire ant worker mortality versus 10% sucrose control: no difference in mortality

## COc1ccc(CCN)cc1 [4-methoxy-phenethylamine]
Fire ant workers [1]; 1.0% in 10% sucrose
  fire ant worker mortality versus 10% sucrose control: No difference in mortality

## COc1ccc(CCN)cc1Cl [3-chloro-4-methoxyphenethylamine]
Fire ant workers [1]; 0.1% in 10% sucrose
  fire ant worker mortality versus 10% sucrose control: significantly different from the 10% sucrose control
Fire ant workers [1]; 1.0% in 10% sucrose
  fire ant worker mortality versus 10% sucrose control: significantly different from the 10% sucrose control
Fire ant workers [1]; 1.0 and 0.1% in 10% sucrose
  mortality: about 8%

## CNCCc1ccc(O)cc1.Cl [N-methyl-tyramine (HCl)]
Fire ant workers [1]; 0.01% in 10% sucrose
  fire ant worker mortality versus 10% sucrose control: significantly different from the sucrose control
Fire ant workers [1]; 0.01%, p<0.01
  speed of worker mortality versus tyramine at the same concentration: significantly faster than the 0.01% tyramine
Fire ant workers [1]; 0.1% in 10% sucrose
  fire ant worker mortality versus 10% sucrose control: significantly different from the sucrose control
Fire ant workers [1]; 0.1%, p=0.22
  speed of worker mortality versus tyramine at the same concentration: not significantly faster than the 0.1% tyramine
Fire ant workers [1]; 1.0% in 10% sucrose
  fire ant worker mortality versus 10% sucrose control: significantly different from the sucrose control
Fire ant workers [1]; 1.0%, p<0.001
  speed of worker mortality versus tyramine at the same concentration: significantly faster worker mortality than the 1.0% tyramine
Fire ant workers [1]; in vivo
  speed of action compared to the N-methyl tyramine free-base: appears to be quicker acting
